In US20260199339A1, “COMBINATION THERAPY FOR TREATING ABNORMAL CELL GROWTH” (Verastem, Inc., priority 2020, published 2026):
“Also recorded” adds a separate entry of the source.

Key:
[1] = test system: KRAS/BRAF mutant human cancer cell lines; experiment: RNA extraction and qRT-PCR of MHC-I antigen presentation genes; format: cell-based; details: FIG. 1
Experimental: RNA Extraction and qRT-PCR
Cells were seeded into 6-cm dishes and after an incubate overnight (17~22 hrs) cells were treated with VS-6766 for 48 hours at a concentration that gave an 80% cell viability (1 μM for A549, TOV21G and WM115, and 300 nM for SKMEL5 and IGR-1). RNA was extracted using RNeasy® Plus Mini kit (Qiagen) and converted to cDNA using the cDNA by High-Capacity cDNA Reverse Transcription Kit (Applied Biosystems). TaqMan qPCR was run using HLA-A, B2M, TAP1 and TAP-2 probes from Applied Biosystems. VIC-GAPDH probe as the house keeping gene. Each PCR reaction will be run in triplicate wells. Expression levels were computed as the difference (ΔCT) between the target gene CT and GAPDH CT.

[2] = test system: TOV21G; experiment: Cell viability after VS-6766 treatment, TOV21G; format: cell-based, human; details: 48 hours
[3] = test system: SKMEL5; experiment: Cell viability after VS-6766 treatment, SKMEL5; format: cell-based, human; details: SKMEL5, 48 hours
[4] = test system: A549; experiment: Cell viability after VS-6766 treatment, A549; format: cell-based, human; details: A549, 48 hours
[5] = test system: WM115; experiment: Cell viability after VS-6766 treatment, WM115; format: cell-based, human; details: WM115, 48 hours
[6] = test system: IGR-1; experiment: Cell viability after VS-6766 treatment, IGR-1; format: cell-based, human; details: IGR-1, 48 hours
[7] = test system: CT26 KRAS (G12D)-mutant colorectal cancer mouse models; experiment: Syngeneic CT26 tumor mouse study, VS-6766 and/or anti-PD-1; format: in vivo; details: VS-6766 0.5 mg/kg PO QD x 28 days; anti-PD-1 60 μg/mouse (3 mg/kg) IP BIW x 4 doses; Balb/c mice; FIG. 2A, 2B
Experimental: CT26 tumor cells were obtained from ATCC and Balb/c mice were obtained from Shanghai Lingchang Biotechnology. Tumor challenge was initiated by subcutaneous inoculation of 3×10^5 CT26 tumor cell suspensions into the right flank of recipient mice. Tumor sizes (mm3) were measured and calculated as described above. Once tumors reached an average volume of 50-80 mm3, mice were sorted into 4 groups (n=10): vehicle (5% DMSO, 10% HPCD in sterile water, oral dosing (PO), once per day (QD), 28 days)+isotype control ([…] intraperitoneally (IP) biweekly, 4 doses; rat IgG2a clone 2A3, BioXcell), VS-6766 (0.5 mg/kg PO QD, 28 days)+isotype control, anti-PD-1 (60 μg/mouse IP biweekly, 4 doses; clone RMP1-14, BioXCell), and VS-6766+anti-PD-1. Tumors and body weights were measured 3 times per week for the duration of the study. At the time of routine monitoring, the animals were checked for any effects of tumor growth and treatments on normal behavior such as mobility, food and water consumption (by looking only), and body weight gain/loss, eye/hair matting and any other abnormal effect. For Kaplan-Meier analysis, an event was defined by death or tumor growth beyond 2,000 mm^3.

CNS(=O)(=O)Nc1nccc(Cc2c(C)c3ccc(Oc4ncccn4)cc3oc2=O)c1F [VS-6766]
HLA-A expression ([1]; 48 h, qRT-PCR): increased
TAP1 expression ([1]; 48 h, qRT-PCR): increased
TAP2 expression ([1]; 48 h, qRT-PCR): increased
β2M expression ([1]; 48 h, qRT-PCR): increased
tumor antigen presentation (markers associated with antigen presentation, MHC-I expression) ([1]; multiple KRAS/BRAF mutant human cancer cell lines): increase tumor antigen presentation; also recorded: upregulates
concentration that gave an 80% cell viability [2]: 1 µM
concentration that gave an 80% cell viability [3]: 300 nM
concentration that gave an 80% cell viability [4]: 1 µM
concentration that gave an 80% cell viability [5]: 1 µM
concentration that gave an 80% cell viability [6]: 300 nM
tumor growth / antitumor efficacy (tumor volume) [7]: delay tumor growth
